# Patent publication US20200197409A1, “HEPATITIS B VIRUS SURFACE ANTIGEN INHIBITOR” (FUJIAN COSUNTER PHARMACEUTICAL CO., LTD., priority 2017, published 2020)
# Like-named read-outs stand apart in the source and are kept apart here.
# Legend:
# [1] = Single-dose pharmacokinetic study on mouse; type: in vivo, C57BL/6 mice
# [2] = Plasma protein binding rate, SD rat plasma; type: in vitro ADME; conditions: plasma of SD rat, dialysis 4 hours at 37° C.
# Protocol: The protein binding rate of Embodiment 6 in the plasma of human, CD-1 mouse and SD rat was determined, 796 μL of blank plasma was taken from human, CD-1 mice and SD rats, and 4 μL of test compound working solution (400 μM) or warfarin working solution (400 μM) was added to achieve a final concentration of the test compound and the warfarin in plasma samples of 2 μM. The samples were mixed thoroughly. The final concentration of organic phase DMSO was 0.5%, 50 μL of the test compound and warfarin plasma sample were transferred into sample receiving plates (three parallels), and a relative volume of corresponding blank plasma or buffer was immediately added, ensuring that the final volume of each sample well was 100 μL, and the volume ratio of plasma to dialysis buffer was 1:1. 400 μL of stop solution was added to these samples, which was used as a T0 sample for the determination of recovery and stability. […] The protein binding rate and the recovery rate were calculated by the formulas: % Protein unbinding rate (%)=100*Drug concentration through the dialysis membrane/drug concentration not through the dialysate: Protein binding rate (%)=100-% protein unbinding rate: % Recovery=100*(Drug concentration through the dialysis membrane+Drug concentration not through the dialysate)/Total drug concentration before undialysis. Protein binding rate and recovery rate were calculated.
compound,measurement,setting,value
COCCCOc1cc2c(cc1OC)-c1cc(=O)c(C(=O)O)cn1[C@H](C(C)(C)C)CO2 [Embodiment 6],Apparent distribution volume,[1]; IV: 1 mg/kg PO: 2 mg/kg,5.79 L/kg
same,Bioavailability,[1]; IV: 1 mg/kg PO: 2 mg/kg,91.6%
same,Highest concentration,[1]; IV: 1 mg/kg PO: 2 mg/kg,1055 nM
same,half-life,"[1]; male, C57BL/6, plasma, IV: 1 mg/kg PO: 2 mg/kg",2.46 h
same,clearance,"[1]; male, C57BL/6, plasma, IV: 1 mg/kg PO: 2 mg/kg, read-out: Clearance rate",75 mL/min/kg
same,AUC(0-t),"[1]; male, C57BL/6, plasma, IV: 1 mg/kg, read-out: AUC0-last (Intravenous injection)",0.502 µM·h
same,AUC(0-t),"[1]; male, C57BL/6, plasma, PO: 2 mg/kg, read-out: AUC0-last (Oral)",0.876 µM·h
same,"fraction unbound at 4 h, 2 μM",[2],0.406
